# Experiments:
# Staphylococcus aureus = assay: Minimum inhibitory concentration and synergistic effect (Kull) against Staphylococcus aureus; type: cell-based; details: for QA (minimum inhibitory concentration of the pure substance A): pure sorbitan monocaprylate
# Excerpt: (§1) Calculation of the synergistic effect according to the formula Qa/QA+Qb/QB=SE (synergistic effect, according to F. C. Kull et al., Applied Microbiology 1961, 9, 538), where Qa=minimum inhibitory concentration of the compound A in % in the mixture used, QA=minimum inhibitory concentration of the pure substance A, Qb=minimum inhibitory concentration of the compound B in % in the mixture used, and QB=minimum inhibitory concentration of the pure substance B.
# (§2) Evaluation of the synergistic effect: where an SE>1 is obtained, there is an antagonistic effect; if SE=1, then the compounds are neutral in their behavior toward one another, and if SE<1, there is a synergistic effect.
# (§3) Mixtures of sorbitan monocaprylate and phenoxyethanol or benzyl alcohol, in accordance with Examples 1) and 2), were investigated. The results with respect to synergism are set out in Tables A and B. “MIC blend” here is the minimum inhibitory concentration of the respective blend.
# Aspergillus brasiliensis = assay: Minimum inhibitory concentration and synergistic effect (Kull) against Aspergillus brasiliensis; type: cell-based; details: for QA (minimum inhibitory concentration of the pure substance A): pure sorbitan monocaprylate
# Excerpt: as §1, §2, §3
# [1] = Table A, sorbitan monocaprylate in 50:50 blend with phenoxyethanol
# [2] = Table B, sorbitan monocaprylate in 50:50 blend with benzyl alcohol
substance,measurement,setting,value
sorbitan monocaprylate,QA (minimum inhibitory concentration of the pure substance A),Staphylococcus aureus; Table A,0.25%
same,Qa (minimum inhibitory concentration of compound A in the mixture used),Staphylococcus aureus; [1],0.0315%
same,QA (minimum inhibitory concentration of the pure substance A),Staphylococcus aureus; Table B,0.25%
same,Qa (minimum inhibitory concentration of compound A in the mixture used),Staphylococcus aureus; [2],0.016%
same,QA (minimum inhibitory concentration of the pure substance A),Aspergillus brasiliensis; Table A,0.016%
same,Qa (minimum inhibitory concentration of compound A in the mixture used),Aspergillus brasiliensis; [1],0.004%
same,QA (minimum inhibitory concentration of the pure substance A),Aspergillus brasiliensis; Table B,0.016%
same,Qa (minimum inhibitory concentration of compound A in the mixture used),Aspergillus brasiliensis; [2],0.004%

# — US9596849B2, “Composition containing sorbitan monocaprylate and alcohol” (Clariant International Ltd., priority 2009, dated 2017)
